Test results taken from patent US12310973B2, “Administration and dosage of diaminophenothiazines” (WisTa Laboratories Ltd., priority 2016, dated 2025).

How the values were obtained:
[1] = system: Mild AD patients; assay: Further 18-month Phase 3 trial in mild AD; type: in vivo, human
Method: To examine the potential efficacy of LMTM as monotherapy in non-randomised observational cohort analyses as modified primary outcomes in an 18-months Phase 3 trial in mild AD.
Mild AD patients (n=800) were randomly assigned to 100 mg twice a day or 4 mg twice a day.
The Statistical Analysis Plan was revised in light of Example 3 (which completed earlier) prior to database lock and unblinding, to compare the 100 mg twice a day as monotherapy subgroup (n=79) versus 4 mg twice a day as randomised (n=396), and 4 mg twice a day as monotherapy (n=76) versus 4 mg twice a day as add-on therapy (n=297), with strong control of family-wise type I error.
We therefore modified the primary analyses and treatment comparisons in the study described in this Example (prior to database lock and unblinding) to investigate whether the monotherapy differences could be confirmed as observational cohort comparisons defined as primary outcomes with strong control of family-wise type I error in the second independent study. The monotherapy cohort comparisons which were of particular interest in light of the earlier study were: (A) 100 mg twice a day a monotherapy compared with the controls as originally randomised, and (B) 4 mg twice a day as monotherapy compared with the same dose as add-on to standard AD treatments.

[2] = system: mild to moderate AD patients; assay: Phase 3 trial in mild to moderate AD: MRI volumetry (LVV, TPV, HV); type: in vivo, human; settings: for HV, Estimate (difference vs control) / LVV, Estimate (difference vs control) / TPV, Estimate (difference vs control): Table 5
Description: The co-primary efficacy outcomes were change from baseline in 11-item Alzheimer's Disease Assessment Scale—cognitive subscale (ADAS-cog) and the 23-item Alzheimer's Disease Cooperative Study Activities of Daily Living (ADCS-ADL). Magnetic resonance imaging (MRI) volumetry was chosen as the principal secondary outcome to support a potential effect on the rate of brain atrophy (Fox et al., 1997; Ridha et al., 2008). Change in Lateral Ventricular Volume (LVV), as measured by the Ventricular Boundary Shift Integral (VBSI), (Salloway et al., 2014) was chosen as the principal measure as it provides high-contrast boundaries for measurement and is less affected by motion artefacts than whole brain or smaller structures. Key supportive topographical measures (temporo-parietal (TPV) and hippocampal volume (HV)) are also reported.
ADAS-cog and ADCS-ADL assessments were performed at baseline and every 13 weeks thereafter, with change at 65 weeks (the final on-treatment visit) the primary efficacy measures. These were repeated at the final off-treatment follow-up visit at Week 69. Secondary efficacy measures included Clinical Global Impression of Change (ADCS-CGIC, administered by an independent rater); MMSE, administered on screening and at Weeks 26, 52, 65 and 69. Brain MRI scans were performed at baseline/screening and every 13 weeks using a standardized protocol including volumetric 3D T1-weighted data consistent with ADNI recommendations, FLAIR, T2* Gradient Echo and T2-weighted sequences. Diffusion-Weighted Imaging was also available at screening in order to exclude patients with co-existing pathology that would lead to a diagnosis other than probable AD. Each site was first qualified ensuring standardised acquisition protocol, patient handling and data management. MRI data were centrally collected by Imaging Corelab (Bioclinica). Data were centrally reviewed by RadMD for eligibility and safety (Amyloid Related Imaging Abnormalities, or ARIA monitoring) on an on-going basis. Volumetric 3DT1 data were also reviewed centrally in order to measure (using a boundary shift integral (BSI) technique; Salloway et al., 2014) change in LVV as principal secondary outcome measure, and as exploratory endpoints temporo-parietal volume (TPV), whole brain volume (WBV) and hippocampal volume (HV, estimated as the mean of left and right) (Wischik et al., 2016). Additional exploratory endpoints included change in glucose uptake in the temporal lobe, assessed using ^18F-fluorodeoxyglucose positron emission tomography (FDG-PET) performed during screening and at Weeks 39 and 65 in a subset of patients in sites with this imaging capability. Changes in cerebrospinal fluid biomarkers of Alzheimer's disease, including total tau, phospho-tau and amyloid-β1-42, were explored using cerebrospinal fluid samples that were collected at baseline and Week 65 (or early termination visit). Lumbar punctures were performed only in subjects who were themselves able to provide consent specifically for this procedure.
The primary efficacy analyses of change from baseline in ADAS-cog and ADCS-ADL scores were conducted in the modified intent-to-treat (mITT) population (all randomised patients who took at least one dose of study treatment and had at least one post-baseline, on-treatment efficacy assessment). The primary analysis was specified as a mixed model repeated-measures (MMRM) analysis with an unstructured covariance matrix and no imputation for missing data. The model included categorical visit (5 levels corresponding to assessments at weeks 13, 26, 39, 52 and 65), treatment (3 levels corresponding to control, 75 mg b.i.d. and 125 mg b.i.d.), treatment-by-visit interaction, and the stratification variables as additive terms, and baseline ADAS-cog or ADCS-ADL as a covariate. A similar exploratory analysis was specified in the Statistical Analysis Plan (SAP) with the AChEI/Mem covariate as an interaction term with treatment and as an interaction term with visit. […]

[3] = Table 5, AChEI/Mem as interaction term, control arm (4 mg b.i.d.)
[4] = Table 6 post-hoc, control-arm subjects, 4 mg b.i.d. + AChEI/Mem
[5] = Table 6 post-hoc, 4 mg b.i.d. alone vs 4 mg b.i.d. + AChEI/Mem
[6] = Table 7, mild AD, 4 mg b.i.d. + AChEI/Mem (control-arm subjects)
[7] = Table 7, mild AD, 4 mg b.i.d. alone vs 4 mg b.i.d. + AChEI/Mem
[8] = Table 7, mild AD, 75 mg b.i.d. alone vs control arm as randomised
[9] = Table 7, mild AD, 125 mg b.i.d. alone vs control arm as randomised
[10] = Table 7, mild AD, control arm as randomised (4 mg b.i.d.)
[11] = Table 7, moderate AD, 4 mg b.i.d. + AChEI/Mem (control-arm subjects)
[12] = Table 7, moderate AD, 4 mg b.i.d. alone vs 4 mg b.i.d. + AChEI/Mem
[13] = Table 7, moderate AD, 75 mg b.i.d. alone vs control arm as randomised
[14] = Table 7, moderate AD, 125 mg b.i.d. alone vs control arm as randomised
[15] = Table 7, moderate AD, control arm as randomised (4 mg b.i.d.)

`CN(C)c1ccc2c(c1)Sc1cc(N(C)C)ccc1N2` [LMTM, leuco-methythioninium bis(hydromethanesulfonate)] was tested, and the “Withdrawal rate over 18 months” value ([1]; 4 mg twice a day) was 25%, the “Withdrawal rate over 18 months” value ([1]; 100 mg twice a day) was 46% and the “Revised analyses on ADAS-cog, ADCS-ADL, MRI atrophy and glucose uptake” value ([1]; 100 mg twice a day monotherapy vs 4 mg twice a day as randomised, 4 mg twice a day monotherapy vs add-on, 18 months) was “statistically significant at the required threshold of p<0.025”. The “Annualised rate of whole brain atrophy” value ([1]; after LMTM as monotherapy for 9 months, within-cohort comparison) was “the rate was reduced to that reported for normal elderly controls”, the “Increase in TPV relative to control” value ([2]; 75 mg b.i.d. monotherapy) was 31%±8% and the “Reduction in LVV (progression of atrophy) relative to control” value ([2]; 75 mg b.i.d. monotherapy) was 38%±9%. The “Increase in TPV relative to control” value ([2]; 125 mg b.i.d. monotherapy) was 26%±8%, the “Reduction in LVV (progression of atrophy) relative to control” value ([2]; 125 mg b.i.d. monotherapy) was 33%±9% and the “HV, Estimate (change from baseline)” value [2, 3] was −115.3 mm^3. The “LVV, Estimate (change from baseline)” value [2, 3] was 7,187 mm^3, the “TPV, Estimate (change from baseline)” value [2, 3] was −1529 mm^3 and the “HV, Estimate (difference vs control)” value ([2]; 75 mg b.i.d. + AChEI/Mem) was −2.0 mm^3. The “LVV, Estimate (difference vs control)” value ([2]; 75 mg b.i.d. + AChEI/Mem) was −273 mm^3, the “TPV, Estimate (difference vs control)” value ([2]; 75 mg b.i.d. + AChEI/Mem) was −39 mm^3 and the “HV, Estimate (difference vs control)” value ([2]; 75 mg b.i.d. monotherapy) was 9.5 mm^3. For the same molecule, the “LVV, Estimate (difference vs control)” value ([2]; 75 mg b.i.d. monotherapy) was −2,707 mm^3, the “TPV, Estimate (difference vs control)” value ([2]; 75 mg b.i.d. monotherapy) was 472 mm^3 and the “HV, Estimate (difference vs control)” value ([2]; 125 mg b.i.d. + AChEI/Mem) was −7.4 mm^3. The “LVV, Estimate (difference vs control)” value ([2]; 125 mg b.i.d. + AChEI/Mem) was −306 mm^3, the “TPV, Estimate (difference vs control)” value ([2]; 125 mg b.i.d. + AChEI/Mem) was −12 mm^3 and the “HV, Estimate (difference vs control)” value ([2]; 125 mg b.i.d. monotherapy) was 20.0 mm^3. The “LVV, Estimate (difference vs control)” value ([2]; 125 mg b.i.d. monotherapy) was −2,347 mm^3, the “TPV, Estimate (difference vs control)” value ([2]; 125 mg b.i.d. monotherapy) was 405 mm^3 and the “HV, Estimate (change from baseline)” value [2, 4] was −117.8 mm^3. For the same molecule, the “LVV, Estimate (change from baseline)” value [2, 4] was 7,426 mm^3, the “TPV, Estimate (change from baseline)” value [2, 4] was −1,596 mm^3 and the “HV, Estimate (difference)” value [2, 5] was 19.5 mm^3. The “LVV, Estimate (difference)” value [2, 5] was −1,894 mm^3, the “TPV, Estimate (difference)” value [2, 5] was 534 mm^3 and the “HV, Estimate (change from baseline)” value [2, 6] was −119.5 mm^3. The “LVV, Estimate (change from baseline)” value [2, 6] was 6,167 mm^3, the “TPV, Estimate (change from baseline)” value [2, 6] was −1,398 mm^3 and the “HV, Estimate (difference)” value [2, 7] was 46.7 mm^3. For the same molecule, the “LVV, Estimate (difference)” value [2, 7] was −2,655 mm^3, the “TPV, Estimate (difference)” value [2, 7] was 722 mm^3 and the “HV, Estimate (difference)” value [2, 8] was 16.9 mm^3. The “LVV, Estimate (difference)” value [2, 8] was −2,549 mm^3, the “TPV, Estimate (difference)” value [2, 8] was 392 mm^3 and the “HV, Estimate (difference)” value [2, 9] was 40.5 mm^3. For the same molecule, the “LVV, Estimate (difference)” value [2, 9] was −2,695 mm^3, the “TPV, Estimate (difference)” value [2, 9] was 439 mm^3 and the “HV, Estimate (change from baseline)” value [2, 10] was −115.8 mm^3. For the same molecule, the “LVV, Estimate (change from baseline)” value [2, 10] was 5,789 mm^3, the “TPV, Estimate (change from baseline)” value [2, 10] was −1,309 mm^3 and the “HV, Estimate (change from baseline)” value [2, 11] was −116.6 mm^3. The “LVV, Estimate (change from baseline)” value [2, 11] was 8,143 mm^3, the “TPV, Estimate (change from baseline)” value [2, 11] was −1,697 mm^3 and the “HV, Estimate (difference)” value [2, 12] was −2.4 mm^3. The “LVV, Estimate (difference)” value [2, 12] was −940 mm^3, the “TPV, Estimate (difference)” value [2, 12] was 370 mm^3 and the “HV, Estimate (difference)” value [2, 13] was 3.6 mm^3. For the same molecule, the “LVV, Estimate (difference)” value [2, 13] was −2,251 mm^3, the “TPV, Estimate (difference)” value [2, 13] was 469 mm^3 and the “HV, Estimate (difference)” value [2, 14] was 2.2 mm^3. For the same molecule, the “LVV, Estimate (difference)” value [2, 14] was −1,703 mm^3, the “TPV, Estimate (difference)” value [2, 14] was 293 mm^3 and the “HV, Estimate (change from baseline)” value [2, 15] was −116.9 mm^3. For the same molecule, the “LVV, Estimate (change from baseline)” value [2, 15] was 8,023 mm^3, the “TPV, Estimate (change from baseline)” value [2, 15] was −1,649 mm^3 and the “Hippocampus volume benefit (increase)” value ([2]; mild patients, LMTM monotherapy) was 35.5 mm^3.
